Assay results: patent publication US8648099B2 (Hoffmann-La Roche Inc., priority 2011, dated 2014)

Assays:
human CB1 receptor = molecular target: T1, human CB1 receptor (Homo sapiens, UniProt P21554); experiment: CB1 receptor affinity ([3H]-CP-55,940 displacement, HEK cell membranes); assay type: binding; conditions: displacement of [3H]-CP-55,940 at 10 μM; read-out: CB1 receptor affinity [% inhibition @ 10 μM]
T1 construct: expressed in transfected cells; host or cells: human embryonic kidney (HEK) cells, Semliki Forest Virus system, membrane preparations
Experimental: (§1) The affinity of the compounds of the invention for cannabinoid receptors was determined using membrane preparations of human embryonic kidney (HEK) cells in which the human CB1 receptor is transiently transfected using a Semliki Forest Virus system in conjunction with [3H]-CP-55,940 as radioligand. After incubation of freshly prepared cell membrane preparation with the [^3H]-ligand, with or without addition of compounds of the invention, separation of bound and free ligand was performed by filtration over glass fiber filters. Radioactivity on the filter was measured by scintillation counting.
(§2) The ability of the compounds to displace the radioligand [^3H]-CP-55,940 was measured at a concentration of 10 μM and values provided as [% inhibition @ 10 μM] both for the CB1 and CB2 receptor assay, The lower % inhibition is, the lower the likelihood of side effects based on CB1 or CB2 receptor inhibition is.

human CB2 receptor = molecular target: T2, human CB2 receptor (Homo sapiens, UniProt P34972); experiment: CB2 receptor affinity ([3H]-CP-55,940 displacement, HEK cell membranes); assay type: binding; conditions: displacement of [3H]-CP-55,940 at 10 μM
T2 construct: expressed in transfected cells; host or cells: human embryonic kidney (HEK) cells, Semliki Forest Virus system, membrane preparations
Experimental: as §1, with “cannabinoid CB2” for “cannabinoid”, “CB2” for “CB1”, “[^3H]-CP-55,940” for “[3H]-CP-55,940”
as §2

ABCA1 protein = experiment: Detection of upregulation of ABCA1 protein in cells (ApoA-I binding, high content imaging); assay type: cell-based; conditions: THP-1 macrophage cells; for % increase of ABCA1 at 3 μM: compound at 3 μM, 24 hrs; for EC50: 24 hrs compound incubation, read-out: EC50 [μM] ABCA1 protein increasing efficacy
Experimental: The ability of compounds of the invention to increase the level of ABCA1 protein is determined in replicate cultures of THP-1 macrophage cells in 96-well microplates. Cells are plated at an initial density of 100,000 cells/well in 100 μl medium and differentiated to adherent macrophages with the addition of PMA (100 nM) for 68 hrs in 10% fetal bovine serum, 3 μl/L of b-mercaptoethanol, RPMI-1640 medium. Then, cells are incubated with RPMI-1640 medium containing 1% FCS, 25 μg/ml acetylated LDL, for 24 hours at 37° C. Following incubation with acetylated LDL, cells are washed twice with 50 μl PBS and incubated with 100 μl of RPMI-1640 medium containing the compound of interest solubilized in DMSO for an additional 24 hrs. The final DMSO concentration in presence of cells is maintained at 0.5%. ApoA-I binding assay using High Content Image Analysis is initiated by replacing with fresh medium, RPMI without Phenol Red, 0.2% BSA containing AlexaFluor®647 labeled ApoA-I for 2 h/37° C./5% CO2. Then, cells are fixed with 4% Formaldehyde in PBS (15 min, RT). Following Nuclei are stained with Hoechst solution (3 μM PBS) and Cytoplasm with Cell Mask Blue (2 μg/ml PBS), 15 min, RT. Finally the stained cells are fixed with a second round of formaldehyde treatment. Fixed stained cells are washed and kept in PBS at 4° C. and can be read immediately until one month after preparation.
The Alexa Fluor 647-labeled Apolipoprotein A-I (20 nM) was prepared as follows: Human recombinant Apolipoprotein A-I (ApoA-I) was exchanged to a buffer of 0.02 M NaHCO3 at pH 8.2 on an NAP desalting column (GE Healthcare) and brought to a concentration to 40 μM (1.13 mg/ml) by adjustment with the same buffer. The ApoA-I was fluorescently labeled by incubation with Alexa Fluor carboxylic acid succimidyl ester (Alexa Fluor 647, Invitrogen A-20006) at a 2:1 molar ratio (Alexa to ApoA-I) for 1 h under shaking at RT. The remaining unconjugated label was removed by buffer exchange to 0.02M NaHCO3 at pH 8.2.
Imaging and data collection were performed on an OPERA confocal microplate imaging reader using a 20× water immersion objective and UV360 or 405 laser to identify the cell nuclei and a 635 laser to identify the fluorescent ApoA-I. Eight fields of view are captured per well. Image capture and analysis was performed with the Acapella software. Background fluorescence detected in control wells without ApoA-I was subtracted.
Using XLfit3 program (ID Business Solutions Ltd. UK), the model 205 for Dose Response One Site is used to calculate the EC50 values. […] More particularly, the compounds of the present invention have EC50 values in a range of 0.1 μM to 3 μm.

T1 sequence (P21554 whole entry): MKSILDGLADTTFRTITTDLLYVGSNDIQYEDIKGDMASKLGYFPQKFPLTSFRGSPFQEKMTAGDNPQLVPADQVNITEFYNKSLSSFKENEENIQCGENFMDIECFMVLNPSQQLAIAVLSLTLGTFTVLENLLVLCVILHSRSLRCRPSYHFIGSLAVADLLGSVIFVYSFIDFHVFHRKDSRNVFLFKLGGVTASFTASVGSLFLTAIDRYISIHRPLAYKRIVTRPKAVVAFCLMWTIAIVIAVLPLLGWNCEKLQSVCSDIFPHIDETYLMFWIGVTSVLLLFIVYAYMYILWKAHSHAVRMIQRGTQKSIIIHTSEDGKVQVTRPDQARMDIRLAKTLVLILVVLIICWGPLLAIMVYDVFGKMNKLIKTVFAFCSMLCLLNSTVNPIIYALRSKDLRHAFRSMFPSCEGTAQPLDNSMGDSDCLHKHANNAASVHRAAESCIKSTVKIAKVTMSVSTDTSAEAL
T2 sequence (P34972 whole entry): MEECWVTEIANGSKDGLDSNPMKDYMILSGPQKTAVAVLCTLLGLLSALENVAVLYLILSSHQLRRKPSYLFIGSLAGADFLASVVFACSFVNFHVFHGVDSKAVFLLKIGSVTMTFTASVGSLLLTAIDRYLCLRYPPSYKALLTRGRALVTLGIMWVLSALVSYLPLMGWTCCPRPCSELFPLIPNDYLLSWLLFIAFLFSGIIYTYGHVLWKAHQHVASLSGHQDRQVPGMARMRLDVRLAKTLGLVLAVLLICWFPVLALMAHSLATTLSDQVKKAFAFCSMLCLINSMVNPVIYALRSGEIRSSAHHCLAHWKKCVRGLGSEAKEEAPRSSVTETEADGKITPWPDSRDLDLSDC

SMILES | inhibition at 10 µM (human CB1 receptor) [%] | inhibition at 10 µM (human CB2 receptor) [%] | % increase of ABCA1 at 3 μM (ABCA1 protein) [%@ 3 μM] | EC50 (ABCA1 protein) [µM]
CN(NC(=O)c1cnc(OCC(F)(F)F)c(-c2cccc(F)c2)c1)c1ccccc1 [Example 56, 5-(3-fluoro-phenyl)-6-(2,2,2-trifluoro-ethoxy)-nicotinic acid N′-methyl-N′-phenyl-hydrazide] | 28 | 16 | >45 | –
CN(NC(=O)c1cnc(OC2CCC2)c(C2CC2)c1)c1ccc(F)cc1 [Example 47, 6-cyclobutoxy-5-cyclopropyl-nicotinic acid N′-(4-fluoro-phenyl)-N′-methyl-hydrazide] | 25 | 7 | >45 | –
O=C(NNCc1ccncc1)c1cnc(OCC(F)(F)F)c(C2CC2)c1 [Example 46, 5-cyclopropyl-6-(2,2,2-trifluoro-ethoxy)-nicotinic acid N′-pyridin-4-ylmethyl-hydrazide] | 11 | 11 | >45 | –
C[C@@H]1CN(NC(=O)c2cnc(OCC(F)(F)F)c(C3CC3)c2)C[C@H](C)O1 [Example 44, 5-cyclopropyl-N-((2R,6S)-2,6-dimethyl-morpholin-4-yl)-6-(2,2,2-trifluoro-ethoxy)-nicotinamide] | 14 | 5 | >45 | –
O=C(NN1CCOCC1)c1cnc(OCC(F)(F)F)c(C2CC2)c1 [Example 32, 5-cyclopropyl-N-morpholin-4-yl-6-(2,2,2-trifluoro-ethoxy)-nicotinamide] | 14 | -14 | – | 1.77
COC[C@@H]1CCCN1NC(=O)c1cnc(OCC(F)(F)F)c(C2CC2)c1 [Example 33, 5-cyclopropyl-N—((S)-2-methoxymethyl-pyrrolidin-1-yl)-6-(2,2,2-trifluoro-ethoxy)-nicotinamide] | 21 | 3 | – | 0.68
O=C(NN1CCCC1=O)c1cnc(OCC(F)(F)F)c(C2CCCC2)c1 [Example 15, 5-cyclopentyl-N-(2-oxopyrrolidin-1-yl)-6-(2,2,2-trifluoroethoxy)-3-pyridinecarboxamide] | 13 | 12 | >45 | –
O=C(NNc1ccc(F)cc1)c1cnc(OC2CCC2)c(-c2ccco2)c1 [Example 48, 6-cyclobutoxy-5-furan-2-yl-nicotinic acid N′-(4-fluoro-phenyl)-hydrazide] | 43 | -2 | – | 0.8
O=C(NN1CCS(=O)(=O)CC1)c1cnc(OCC(F)(F)F)c(-c2ccc(Cl)cc2)c1 [Example 3, 5-(4-chloro-phenyl)-N-(1,1-dioxido-4-thiomorpholinyl)-6-(2,2,2-trifluoro-ethoxy)-3-pyridinecarboxamide] | 39 | 7 | >45 | –
CN(NC(=O)c1cnc(OCC(F)(F)F)c(C2CCOCC2)c1)c1ccccc1 [Example 35, 5-(tetrahydro-pyran-4-yl)-6-(2,2,2-trifluoro-ethoxy)-nicotinic acid N′-methyl-N′-phenyl-hydrazide] | 34 | 25 | – | 2.35
CN(CCCO)NC(=O)c1cnc(OCC(F)(F)F)c(-c2ccc(Cl)cc2)c1 [Example 28, 5-(4-chlorophenyl)-N′-(3-hydroxypropyl)-N′-methyl-6-(2,2,2-trifluoroethoxy)-3-pyridinecarboxylic acid hydrazide] | 46 | -9 | >45 | –
CC(C)(C)OC(=O)N1CCCN1C(=O)c1cnc(OCC(F)(F)F)c(-c2ccc(Cl)cc2)c1 [Example 4, t-butyl 2-[(5-(4-chlorophenyl)-6-(2,2,2-trifluoroethoxy)-3-pyridinyl)carbonyl]-pyrazolidine-1-carboxylate] | 40 | 24 | >45 | –
